In patent publication US8350028B2, “2-aminoquinolines” (Hofmann-La Roche Inc., priority 2008, dated 2013):

target: T1, recombinant human 5-HT5A receptor (Homo sapiens, UniProt P47898); test: [3H]LSD radioligand binding assay; settings: [3H]LSD (approximately 1 nM); membranes from HEK-EBNA cells transiently expressing 5-HT5A receptors; Ki calculated from IC50 using the Cheng-Prussoff equation
T1 construct: expressed in transfected cells; host or cells: HEK-EBNA (Human Embryonic Kidney-EBNA) cells, transient cDNA expression; membranes
Method: A [^3H]LSD radioligand binding assay was used to determine the affinity of the compounds for the recombinant human 5-HT5A receptor, in membranes from transiently (cDNA) expressed 5-HT5A receptors in Human Embryonic Kidney-EBNA (HEK-EBNA) cells. Assay buffer consisted of Tris (50 mM) buffer containing 1 mM EGTA, 10 mM MgCl2 (pH 7.4) and 10 μM pargyline. The binding assay was carried out in 96-well-plates in the presence of [^3H]LSD (approximately 1 nM), approximately 2 μg/well of membrane protein, and 0.5 mg of Ysi-poly-1-lysine SPA beads in a final volume of 200 μl of buffer. Non-specific binding was defined using methiothepin 2 μM. Compounds were tested at 10 concentrations. All assays were conducted in duplicate and repeated at least two times. Assay plates were incubated for 120 min at room temperature before centrifugation. Bound ligand was determined using a Packard Topcount scintillation counter. IC50 values were calculated using a non-linear curve fitting program and Ki values calculated using the Cheng-Prussoff equation.

T1 sequence (P47898 whole entry): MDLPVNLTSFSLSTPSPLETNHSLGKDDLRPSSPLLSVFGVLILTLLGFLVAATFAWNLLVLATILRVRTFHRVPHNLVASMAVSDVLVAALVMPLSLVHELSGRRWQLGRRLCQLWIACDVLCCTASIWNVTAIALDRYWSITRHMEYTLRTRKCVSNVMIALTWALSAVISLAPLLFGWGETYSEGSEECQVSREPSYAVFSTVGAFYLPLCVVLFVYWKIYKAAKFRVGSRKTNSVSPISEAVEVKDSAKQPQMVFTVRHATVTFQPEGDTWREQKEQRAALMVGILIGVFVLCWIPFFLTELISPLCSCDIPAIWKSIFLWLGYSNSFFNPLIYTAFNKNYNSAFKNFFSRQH

Compound | Ki [nM]
COc1ccccc1CNc1ccc2cc(NS(=O)(=O)N(C)C)ccc2n1 [Example 10, N′-{2-[(2-methoxybenzyl)amino]quinolin-6-yl}-N,N-dimethylsulfamide] | 17.1
COc1ccccc1CNc1ccc2cc(NC(=O)NC(C)C)ccc2n1 [Example 14, 1-Isopropyl-3-[2-(2-methoxy-benzylamino)-quinolin-6-yl]-urea] | 3.3
COc1ccccc1CNc1ccc2cc(NC(=O)NC3CCN(C)CC3)ccc2n1 [Example 17, 1-[2-(2-Methoxy-benzylamino)-quinolin-6-yl]-3-(1-methyl-piperidin-4-yl)-urea] | 2.7
COc1ccc(CNc2ccc3cc(NC(=O)NC(C)C)ccc3n2)cc1 [Example 18, 1-Isopropyl-3-[2-(4-methoxy-benzylamino)-quinolin-6-yl]-urea] | 49.5
COc1ccccc1CNc1ccc2cc(NS(=O)(=O)N3C[C@@H]4C[C@H]3CO4)ccc2n1 [Example 19, (1S,4S)-2-Oxa-5-aza-bicyclo[2.2.1]heptane-5-sulfonic acid [2-(2-methoxy-benzylamino)-quinolin-6-yl]-amide] | 8
COc1ccccc1CNc1ccc2cc(NS(=O)(=O)NC3CC3)ccc2n1 [Example 20, N-cyclopropyl-N′-{2-[(2-methoxybenzyl)amino]quinolin-6-yl}sulfamide] | 26.8
Cc1ccc(CNc2ccc3cc(NC(=O)NC(C)C)ccc3n2)o1 [Example 21, 1-Isopropyl-3-{2-[(5-methyl-furan-2-ylmethyl)-amino]-quinolin-6-yl}-urea] | 27.4
COCCN1CCC(NC(=O)Nc2ccc3nc(NCc4ccccc4OC)ccc3c2)CC1 [Example 23, 1-[2-(2-Methoxy-benzylamino)-quinolin-6-yl]-3-[1-(2-methoxy-ethyl)-piperidin-4-yl]-urea] | 6.4
COc1ccccc1CNc1ccc2cc(NC(=O)NC3CCN(CCF)CC3)ccc2n1 [Example 24, 1-[1-(2-Fluoro-ethyl)-piperidin-4-yl]-3-[2-(2-methoxy-benzylamino)-quinolin-6-yl]-urea] | 8.4
COc1ccccc1CNc1ccc2cc(NC(=O)NC3CCN(C(C)C)CC3)ccc2n1 [Example 25, 1-(1-Isopropyl-piperidin-4-yl)-3-[2-(2-methoxy-benzylamino)-quinolin-6-yl]-urea] | 6.7
COc1ccccc1CNc1ccc2cc(NC(=O)NC3CCN(C(=O)CC(F)(F)F)CC3)ccc2n1 [Example 26] | 36.2
COc1ccccc1CNc1ccc2cc(NC(=O)NC3CCN(C(=O)CF)CC3)ccc2n1 [Example 27, 1-[1-(2-Fluoro-acetyl)-piperidin-4-yl]-3-[2-(2-methoxy-benzylamino)-quinolin-6-yl]-urea] | 15.7
COc1ccccc1CNc1ccc2cc(NC(=O)NC3CCN(C4CC4)CC3)ccc2n1 [Example 28, 1-(1-Cyclopropyl-piperidin-4-yl)-3-[2-(2-methoxy-benzylamino)-quinolin-6-yl]-urea] | 6.8
Cc1ccc(CNc2ccc3cc(NC(=O)NC4CCN(C)CC4)ccc3n2)o1 [Example 29, 1-{2-[(5-Methyl-furan-2-ylmethyl)-amino]-quinolin-6-yl}-3-(1-methyl-piperidin-4-yl)-urea] | 12.5
COc1ccccc1CNc1ccc2cc(NC(=O)NC3CCN(CCSC)CC3)ccc2n1 [Example 30, 1-[2-(2-Methoxy-benzylamino)-quinolin-6-yl]-3-[1-(2-methylsulfanyl-ethyl)-piperidin-4-yl]-urea] | 5.9
COCC(=O)N1CCC(NC(=O)Nc2ccc3nc(NCc4ccccc4OC)ccc3c2)CC1 [Example 31, 1-[1-(2-Methoxy-acetyl)-piperidin-4-yl]-3-[2-(2-methoxy-benzylamino)-quinolin-6-yl]-urea] | 20.4
COc1ccccc1CNc1ccc2cc(NC(=O)C3CC3)ccc2n1 [Example 32, Cyclopropanecarboxylic acid [2-(2-methoxy-benzylamino)-quinolin-6-yl]-amide] | 6.5
COc1ccccc1CNc1ccc2cc(NC(=O)CN3CCN(C)CC3)ccc2n1 [Example 33, N-[2-(2-Methoxy-benzylamino)-quinolin-6-yl]-2-(4-methyl-piperazin-1-yl)-acetamide] | 33
